Reference: US6974568B2, “Treatment for cough” (The Regents of the University of California, priority 2000, dated 2005)

Assays:
[1] = system: capsaicin-evoked cough; conditions: guinea pig, in vivo
[2] = system: capsaicin-evoked bronchospasm; test: Capsaicin-evoked bronchospasm in anesthetized guinea pigs; assay type: in vivo, guinea pig; conditions: for reversal of anandamide's inhibition of capsaicin-evoked bronchospasm: antagonist given with anandamide, SR141716A 0.5 mg per kg i.v., SR144528 0.3 mg per kg i.v. (maximal dose); for intrinsic effect on capsaicin-evoked bronchoconstriction: capsaicin via tracheal catheter or i.v., antagonist i.v.; for effect on capsaicin-evoked bronchospasm: administered systemically before capsaicin
[3] = system: guinea pig lung parenchyma strips; test: Isolated lung strips, muscle contraction; conditions: for effect on anandamide bronchoconstriction in vitro: SR141716A 1 μM, lung strips
Procedure: Guinea pig parenchimal strips were prepared essentially as described in Samhoun, M. N., et al. (1984) Prostaglandins, 27, 711-724. The strips were placed in 10-ml organ baths containing Krebs' buffer (in mM: NaCl, 118; KCl, 4; K2HPO4, 1.2; MgSO4, 1.2; CaCl2, 2.5; NaHCO3, 25.0; glucose, 11.2; supplemented with […] atropine sulfate and […] indomethacin) at 37° C. and aerated with an oxygen/carbon dioxide mixture (95/5%). Muscle contractions were recorded with an isometric force transducer (U. Basile) and expressed in dyne per mg of fresh tissue.

[4] = system: bronchial smooth muscle; test: Direct bronchomotor action in anesthetized animals with intact vagus; assay type: in vivo, guinea pig
[5] = system: bronchial smooth muscle; test: Bronchoconstriction in vagotomized, atropine-treated guinea pigs; assay type: in vivo, guinea pig; conditions: for effect on anandamide bronchoconstriction in vivo: antagonist before anandamide; for bronchial muscle constriction, % of maximal bronchospasm: tracheal administration, n=6
[6] = system: bronchial smooth muscle; test: Bronchoconstriction in vagotomized, atropine-treated rats; assay type: in vivo, rat; conditions: after vagotomy and atropine, n=3
[7] = system: capsaicin-evoked bronchospasm; test: Capsaicin-evoked bronchospasm in anesthetized rats; assay type: in vivo, rat; conditions: n=3
[8] = capsazepine 0.2 mg per kg, i.v.

## Cc1c(C(=O)NN2CCCCC2)nn(-c2ccc(Cl)cc2Cl)c1-c1ccc(Cl)cc1 [SR141716A]
[1]; iv
  effect of CB1 receptor blockade on anandamide's reduction of capsaicin-evoked cough: abrogated
  intrinsic effect on capsaicin-evoked coughing: significantly enhanced
[2]
  reversal of anandamide's inhibition of capsaicin-evoked bronchospasm: completely reversed
  intrinsic effect on capsaicin-evoked bronchoconstriction: significantly enhanced
[2]; capsaicin i.v. after SR141716A 0.5 mg per kg i.v., P<0.05, n=3
  bronchospasm, % of maximal bronchospasm: 92.3±3.4%
[3]
  effect on anandamide bronchoconstriction in vitro: blocked
[4]; antagonist alone, without capsaicin, guinea pigs
  bronchomotor consequences per se: no bronchomotor consequences per se
[5]
  effect on anandamide bronchoconstriction in vivo: blocked

## CCCCC/C=C\C/C=C\C/C=C\C/C=C\CCCC(=O)NCCO [anandamide, arachidonylethanolamide]
[1]
  visual signs of cannabinoid intoxication: not accompanied by any visual signs of cannabinoid intoxication
[2]
  effect on capsaicin-evoked bronchospasm: abrogated
[3]; anandamide 50 μM alone, n=6
  contraction of isolated lung strips: 0.336±0.07 dyne/mg of tissue
[4]; 5 mg per kg (highest dose tested), mean±s.e.m., n=5
  bronchoconstriction, % of maximal: 11.8±5.9%
[4]; doses below the highest dose tested (5 mg per kg), species not given
  direct bronchomotor action: no direct bronchomotor action
[6]; 1 mg per kg i.v.
  bronchoconstriction, % of maximal bronchospasm: 0±0%
[6]; 3 mg per kg i.v.
  bronchoconstriction, % of maximal bronchospasm: 12±1.7%
[6]; 5 mg per kg i.v.
  bronchoconstriction, % of maximal bronchospasm: 18.3±1.2%
[7]; capsaicin intratracheal after anandamide 1 mg per kg i.v.
  bronchospasm, % of maximal bronchospasm: 14±7%
[5]; systemic application, guinea pigs
  bronchomotor effect after vagotomy and atropine: dose-dependent bronchoconstriction

## COc1cc(CNC(=O)CCCC/C=C/C(C)C)ccc1O [capsaicin]
[2]; capsaicin alone, i.v., n=3
  bronchospasm, % of maximal bronchospasm: 55.3±8.2%
[7]; capsaicin 30 mg per animal, intratracheal
  bronchospasm, % of maximal bronchospasm: 55±12%
[7]; capsaicin 100 mg per animal, intratracheal
  bronchospasm, % of maximal bronchospasm: 81±19%
[7]; capsaicin intratracheal alone (anandamide experiment)
  bronchospasm, % of maximal bronchospasm: 37.2±4.2%
[7]; capsaicin, intratracheal, mean±s.e.m.
  bronchospasm, % of maximal bronchospasm: 41±6%

## CCCCCCCCCCCCCCCC(=O)NCCO [Palmitylethanolamide]
[2]
  effect on capsaicin-evoked bronchospasm: ineffective

## SR144528
[1]; iv
  intrinsic effect on capsaicin-evoked coughing: had no such effects
[2]
  reversal of anandamide's inhibition of capsaicin-evoked bronchospasm: only slightly reduced
  intrinsic effect on capsaicin-evoked bronchoconstriction: had no such effects
[3]
  effect on anandamide bronchoconstriction in vitro: had no such effect
[5]
  effect on anandamide bronchoconstriction in vivo: had no such effect

## CCCCC/C=C\C/C=C\C/C=C\C/C=C\CCCC(=O)Nc1ccc(O)cc1 [N-(4-hydroxyphenyl)-arachidonamide]
[3]; anandamide 50 μM plus N-(4-hydroxyphenyl)-arachidonamide 28 μM, P<0.05, n=6
  anandamide-evoked contraction of isolated lung strips: 0.638±0.06 dyne/mg of tissue

## Oc1cc2c(cc1O)CN(C(=S)NCCc1ccc(Cl)cc1)CCC2 [capsazepine]
[2]; [8]
  effect on the capsaicin response (bronchospasm): completely prevented
[5]; [8]
  effect on anandamide-evoked bronchospasm: had no effect

## CCCCCCC(C)(C)c1cc(O)c2c(c1)OC(C)(C)[C@@H]1CC=C(CO)C[C@@H]21 [HU210]
[5]; 0.1 mg per animal
  bronchial muscle constriction, % of maximal bronchospasm: 10.0±0.6%
[5]; 1 mg per animal
  bronchial muscle constriction, % of maximal bronchospasm: 30±1.2%
[5]; 10 mg per animal
  bronchial muscle constriction, % of maximal bronchospasm: 60±2.2%
[5]; 30 mg per animal
  bronchial muscle constriction, % of maximal bronchospasm: 100%
